According to US9255295B2, “Method for evaluating the sensitizing potential of a test compound” (IMMUNOSEARCH, priority 2010, dated 2016):

Experiments:
EPISKIN model [1] = system: EPISKIN model
Excerpt: (§1) “Sensitizing power” means the ability of a given compound to induce a sensitization reaction according to the concentration of said compound. Sensitizing power is dependent on the quantity of substance necessary to induce sensitization. Thus, the lower the sensitizing quantity necessary to induce a sensitizing response, the stronger the sensitizer is, and vice versa, the higher the sensitizing quantity necessary to induce a sensitizing response, the weaker the sensitizer is.
(§2) Thus, steps 1) and 2) will be done for each of the dilutions.

[2] = system: ARE gene family (AKR1B10, AKR1C1, AKR1C2, CYP1B1, FTH1P, FTL, G6PD, GCLM, NQO2, SLC7A11, TXNRD1, UGT1A1, UGT1A9, YWHAZ, CD36, CYP1A1, GCLC, HMOX1, NQO1, PSME2 …)
[3] = system: genes specific for sensitization (BRAK, CTSS, DAPK2, FABP4, HSP27, IL18, HSP90, IL1R2, TPSAB1, CXCR1, DEFB1, DHFR, EHF, IVL, KRT4, MELANA, NGAL, PDZK1IP1, PI3 …); experiment: Expression of the other (non-ARE) sensitization-specific genes in EPISKIN reconstructed skin (quantitative RT-PCR); type: cell-based, human
EPISKIN model [4] = experiment: Sensitizing power: sensitizing potential retested at successive dilutions in the EPISKIN model
Excerpt: as §1, §2

CC(O)C(=O)O (stereo not drawn) [Ac Lactique]
sensitizing potential (conclusion) (EPISKIN model [1]): Non-sensitizing | AHR NUMBER OF GENES grade [2]: 0 (key: If the expression is greater than 1.3 compared to the control, a grade of 11s given; if this expression is lower, the grade is 0) | AHR expression [2]: 0.8 | AKR1B10 NUMBER OF GENES grade [2]: 0 (key: If the expression is greater than 1.3 compared to the control, a grade of 11s given; if this expression is lower, the grade is 0) | AKR1C1 NUMBER OF GENES grade [2]: 0 (key: If the expression is greater than 1.3 compared to the control, a grade of 11s given; if this expression is lower, the grade is 0) | AKR1C2 NUMBER OF GENES grade [2]: 0 (key: If the expression is greater than 1.3 compared to the control, a grade of 11s given; if this expression is lower, the grade is 0) | ARE >1.3 (number of genes) [2]: 0 | CYP1B1 NUMBER OF GENES grade [2]: 0 (key: If the expression is greater than 1.3 compared to the control, a grade of 11s given; if this expression is lower, the grade is 0) | FTH1P NUMBER OF GENES grade [2]: 0 (key: If the expression is greater than 1.3 compared to the control, a grade of 11s given; if this expression is lower, the grade is 0) | FTL NUMBER OF GENES grade [2]: 0 (key: If the expression is greater than 1.3 compared to the control, a grade of 11s given; if this expression is lower, the grade is 0) | GCLC NUMBER OF GENES grade [2]: 0 (key: If the expression is greater than 1.3 compared to the control, a grade of 11s given; if this expression is lower, the grade is 0) | GCLM NUMBER OF GENES grade [2]: 0 (key: If the expression is greater than 1.3 compared to the control, a grade of 11s given; if this expression is lower, the grade is 0) | GCLM expression [2]: 1.1 | HMOX1 NUMBER OF GENES grade [2]: 0 (key: If the expression is greater than 1.3 compared to the control, a grade of 11s given; if this expression is lower, the grade is 0) | NQO1 NUMBER OF GENES grade [2]: 0 (key: If the expression is greater than 1.3 compared to the control, a grade of 11s given; if this expression is lower, the grade is 0) | NQO2 NUMBER OF GENES grade [2]: 0 (key: If the expression is greater than 1.3 compared to the control, a grade of 11s given; if this expression is lower, the grade is 0) | NQO2 expression [2]: 1.2 | SLC7A11 NUMBER OF GENES grade [2]: 0 (key: If the expression is greater than 1.3 compared to the control, a grade of 11s given; if this expression is lower, the grade is 0) | SLC7A11 expression [2]: 1.0 | TOTAL ARE (number of genes) [2]: 0 | TXNRD1 NUMBER OF GENES grade [2]: 0 (key: If the expression is greater than 1.3 compared to the control, a grade of 11s given; if this expression is lower, the grade is 0) | UGT1A1 NUMBER OF GENES grade [2]: 0 (key: If the expression is greater than 1.3 compared to the control, a grade of 11s given; if this expression is lower, the grade is 0) | UGT1A1 expression [2]: 1.3 | UGT1A9 NUMBER OF GENES grade [2]: 0 (key: If the expression is greater than 1.3 compared to the control, a grade of 11s given; if this expression is lower, the grade is 0) | UGT1A9 expression [2]: 0.8 | SENS >1.3 (number of genes) [3]: 1 | NUMBER OF GENES overexpressed, sum column 8 (EPISKIN model [4]): 0
